Experimental data reported in ChEMBL document CHEMBL4308841, “Synthesis, in vitro antiproliferative activity, and kinase inhibitory effects of pyrazole-containing diarylureas and diarylamides” (Eur J Med Chem, 2018).
pIC50: −log10 of the molar value.

Legend:
MDA-MB-231 = experiment: Growth inhibition of human MDA-MB-231 cells assessed as cell growth at 1 uM incubated for 48 hrs by sulforhodamine B assay relative to control; type: functional; conditions: MDA-MB-231, 48 h, read-out: Activity
SN12C = experiment: Growth inhibition of human SN12C cells assessed as cell growth at 1 uM incubated for 48 hrs by sulforhodamine B assay relative to control; type: functional; conditions: read-out: Activity
BT-549 = experiment: Growth inhibition of human BT549 cells assessed as cell growth at 0.1 uM incubated for 48 hrs by sulforhodamine B assay relative to control; type: functional; conditions: BT-549, 48 h, read-out: Activity
HL-60(TB) = experiment: Growth inhibition of human HL-60(TB) cells assessed as cell growth at 0.1 uM incubated for 48 hrs by sulforhodamine B assay relative to control; type: functional; conditions: HL-60, 48 h, read-out: Activity
HT-29 = experiment: Growth inhibition of human HT-29 cells assessed as cell growth at 10 uM incubated for 48 hrs by sulforhodamine B assay relative to control; type: functional; conditions: HT-29, 48 h, read-out: Activity
UACC-62 [1] = experiment: Growth inhibition of human UACC62 cells assessed as cell growth at 0.1 uM incubated for 48 hrs by sulforhodamine B assay relative to control; type: functional; conditions: UACC-62, 48 h, read-out: Activity
NCI-H322M = experiment: Growth inhibition of human NCI-H322M cells incubated for 48 hrs by sulforhodamine B assay; type: functional, cell-based
NCI/ADR-RES = experiment: Growth inhibition of human NCI/ADR-RES cells incubated for 48 hrs by sulforhodamine B assay; type: functional, cell-based
RXF 393 [2] = experiment: Growth inhibition of human RXF393 cells assessed as cell growth at 100 uM incubated for 48 hrs by sulforhodamine B assay relative to control; type: functional; conditions: RXF 393, 48 h, read-out: Activity
SW-620 = experiment: Growth inhibition of human SW620 cells assessed as cell growth at 100 uM incubated for 48 hrs by sulforhodamine B assay relative to control; type: functional; conditions: SW-620, 48 h, read-out: Activity
Hs-578T = experiment: Growth inhibition of human Hs578T cells assessed as cell growth at 0.01 uM incubated for 48 hrs by sulforhodamine B assay relative to control; type: functional; conditions: read-out: Activity
786-0 = experiment: Growth inhibition of human 786-0 cells assessed as cell growth at 0.1 uM incubated for 48 hrs by sulforhodamine B assay relative to control; type: functional; conditions: 786-0, 48 h, read-out: Activity
HOP-62 = experiment: Growth inhibition of human HOP62 cells assessed as cell growth at 100 uM incubated for 48 hrs by sulforhodamine B assay relative to control; type: functional; conditions: HOP-62, 48 h, read-out: Activity
RXF 393 [3] = experiment: Growth inhibition of human RXF393 cells incubated for 48 hrs by sulforhodamine B assay; type: functional, cell-based; conditions: RXF 393, 48 h
UO-31 [4] = experiment: Growth inhibition of human UO31 cells incubated for 48 hrs by sulforhodamine B assay; type: functional, cell-based; conditions: UO-31, 48 h
UACC-62 [5] = experiment: Growth inhibition of human UACC62 cells assessed as cell growth at 0.01 uM incubated for 48 hrs by sulforhodamine B assay relative to control; type: functional; conditions: UACC-62, 48 h, read-out: Activity
NCI-H522 = experiment: Growth inhibition of human NCI-H522 cells incubated for 48 hrs by sulforhodamine B assay; type: functional, cell-based; conditions: NCI-H522, 48 h
K562 [6] = experiment: Growth inhibition of human K562 cells assessed as cell growth at 100 uM incubated for 48 hrs by sulforhodamine B assay relative to control; type: functional; conditions: K562, 48 h, read-out: Activity
SK-MEL-28 = experiment: Growth inhibition of human SK-MEL-28 cells assessed as cell growth at 0.01 uM incubated for 48 hrs by sulforhodamine B assay relative to control; type: functional; conditions: SK-MEL-28, 48 h, read-out: Activity
SK-OV-3 = experiment: Growth inhibition of human SKOV3 cells assessed as cell growth at 100 uM incubated for 48 hrs by sulforhodamine B assay relative to control; type: functional; conditions: SK-OV-3, 48 h, read-out: Activity
UACC-257 = experiment: Growth inhibition of human UACC257 cells assessed as cell growth at 100 uM incubated for 48 hrs by sulforhodamine B assay relative to control; type: functional; conditions: UACC-257, 48 h, read-out: Activity
ACHN = experiment: Growth inhibition of human ACHN cells incubated for 48 hrs by sulforhodamine B assay; type: functional, cell-based
LOX IMVI = experiment: Growth inhibition of human LOXIMVI cells assessed as cell growth at 100 uM incubated for 48 hrs by sulforhodamine B assay relative to control; type: functional; conditions: read-out: Activity
MOLT-4 = experiment: Growth inhibition of human MOLT4 cells assessed as cell growth at 0.01 uM incubated for 48 hrs by sulforhodamine B assay relative to control; type: functional; conditions: MOLT-4, 48 h, read-out: Activity
K562 [7] = experiment: Growth inhibition of human K562 cells assessed as cell growth at 0.1 uM incubated for 48 hrs by sulforhodamine B assay relative to control; type: functional; conditions: K562, 48 h, read-out: Activity
UO-31 [8] = experiment: Growth inhibition of human UO31 cells assessed as cell growth at 1 uM incubated for 48 hrs by sulforhodamine B assay relative to control; type: functional; conditions: UO-31, 48 h, read-out: Activity
Malme-3M = experiment: Growth inhibition of human MALME-3M cells incubated for 48 hrs by sulforhodamine B assay; type: functional, cell-based
RXF 393 [9] = experiment: Growth inhibition of human RXF393 cells assessed as cell growth at 0.01 uM incubated for 48 hrs by sulforhodamine B assay relative to control; type: functional; conditions: RXF 393, 48 h, read-out: Activity
OVCAR-8 = experiment: Growth inhibition of human OVCAR8 cells assessed as cell growth at 0.01 uM incubated for 48 hrs by sulforhodamine B assay relative to control; type: functional; conditions: OVCAR-8, 48 h, read-out: Activity
HCT-15 = experiment: Growth inhibition of human HCT15 cells assessed as cell growth at 0.1 uM incubated for 48 hrs by sulforhodamine B assay relative to control; type: functional; conditions: HCT-15, 48 h, read-out: Activity
[10] = read-out: LC50 (the source's name)
[11] = read-out: pLC50 (the source's name) (converted)

## O=C(Nc1cccc(-n2cc(-c3ccncc3)c(-c3cc(O)cc(Cl)c3)n2)c1)Nc1ccc(Cl)c(C(F)(F)F)c1
MDA-MB-231
  growth at 1 µM: 77%
SN12C
  growth at 1 µM: 97%
BT-549
  growth at 0.1 µM: 95%
HL-60(TB)
  growth at 0.1 µM: 89%
HT-29
  growth at 10 µM: 35.3%
UACC-62 [1]
  growth at 0.1 µM: 102%
NCI-H322M; read-out: GI50
  GI50: 3.15 µM
NCI-H322M; [10]
  CC50: 95.5 µM
NCI-H322M; read-out: TGI
  TGI: 13 µM
NCI-H322M; read-out: pGI50 (converted)
  GI50: 3.16 µM
NCI-H322M; [11]
  CC50: 95.5 µM
NCI-H322M; read-out: pTGI (converted)
  TGI: 12.9 µM
NCI/ADR-RES; read-out: GI50
  GI50: 3.41 µM
NCI/ADR-RES; [10]
  CC50: > 100 µM
NCI/ADR-RES; read-out: TGI
  TGI: 23.6 µM
NCI/ADR-RES; read-out: pGI50 (converted)
  GI50: 3.39 µM
NCI/ADR-RES; [11]
  CC50: > 100 µM
NCI/ADR-RES; read-out: pTGI (converted)
  TGI: 23.4 µM
RXF 393 [2]
  growth at 100 µM: -72%
SW-620
  growth at 100 µM: -58%
Hs-578T
  growth at 0.01 µM: 95%
786-0
  growth at 0.1 µM: 95%
HOP-62
  growth at 100 µM: -12%
RXF 393 [3]
  LC50: 12.9 µM
RXF 393 [3]; read-out: GI50
  GI50: 1.42 µM
RXF 393 [3]; read-out: TGI
  TGI: 36.6 µM
RXF 393 [3]; read-out: pGI50 (converted)
  GI50: 1.41 µM
RXF 393 [3]; read-out: pTGI (converted)
  TGI: 3.89 µM
UO-31 [4]
  pIC50: 5.68
UO-31 [4]; read-out: GI50
  GI50: 2.1 µM
UO-31 [4]; [10]
  CC50: 34.7 µM
UO-31 [4]; read-out: TGI
  TGI: 61.4 µM
UO-31 [4]; read-out: pGI50 (converted)
  GI50: 2.63 µM
UO-31 [4]; [11]
  CC50: 34.7 µM
UO-31 [4]; read-out: pTGI (converted)
  TGI: 6.17 µM
UACC-62 [5]
  growth at 0.01 µM: 104%
NCI-H522; read-out: GI50
  GI50: 1.32 µM
NCI-H522; [10]
  CC50: 19 µM
NCI-H522; read-out: TGI
  TGI: 44.8 µM
NCI-H522; read-out: pGI50 (converted)
  GI50: 1.32 µM
NCI-H522; [11]
  CC50: 19.1 µM
NCI-H522; read-out: pTGI (converted)
  TGI: 4.47 µM
K562 [6]
  growth at 100 µM: -9%
SK-MEL-28
  growth at 0.01 µM: 97%
SK-OV-3
  growth at 100 µM: -15%
UACC-257
  growth at 100 µM: -96%
ACHN; read-out: GI50
  GI50: 3.1 µM
ACHN; [10]
  CC50: > 100 µM
ACHN; read-out: TGI
  TGI: 15.3 µM
ACHN; read-out: pGI50 (converted)
  GI50: 3.09 µM
ACHN; [11]
  CC50: > 100 µM
ACHN; read-out: pTGI (converted)
  TGI: 15.1 µM
LOX IMVI
  growth at 100 µM: -89%
MOLT-4
  growth at 0.01 µM: 100%
K562 [7]
  growth at 0.1 µM: 94%
UO-31 [8]
  growth at 1 µM: 84%
Malme-3M; read-out: GI50
  GI50: 2.37 µM
Malme-3M; [10]
  CC50: 24.3 µM
Malme-3M; read-out: TGI
  TGI: 62.5 µM
Malme-3M; read-out: pGI50 (converted)
  GI50: 2.34 µM
Malme-3M; [11]
  CC50: 24.5 µM
Malme-3M; read-out: pTGI (converted)
  TGI: 6.31 µM
RXF 393 [9]
  growth at 0.01 µM: 93%
OVCAR-8
  growth at 0.01 µM: 102%
HCT-15
  growth at 0.1 µM: 88%
